What was measured:
AMO-1 xenograft tumors = assay: Response of multiple myeloma model AMO-1 to BH3 mimetic treatment; assay type: in vivo, mice; details: 100 mg/kg orally, 16 hours (FIG. 7A)
MV411 xenograft tumors = assay: Response of AML model MV411 to BH3 mimetic treatment; assay type: in vivo, mice; details: MV411 xenograft tumor lysates, 24 hours after treatment; NSC798846 25 mg/kg intravenously, NSC766270 100 mg/kg orally (FIG. 7B)
BAK-BAX oligomerization = assay: Heterodimer complexes in AMO-1 xenograft tumor lysates after treatment, BAK-BAX; assay type: in vivo, mice; details: 16 hours after treatment, 100 mg/kg orally (FIG. 7A)
Experimental: The immunoassays described herein were built on the Luminex xMAP multiplex technology platform using magnetic bead capture. Washes were performed with a 96-well magnetic plate washer (ELx405), BioTek). During incubation, the plates were placed on an orbital titer plate shaker (VWR International). Liquid handling was performed manually with calibrated, adjustable, precision multichannel pipettes (Rainin 8-Channel). All assays were performed in 96-well plates (BioPlex, BioRad) at 25° C.±3° C. by adding 10 μL of blocking solution (Myriad RBM) and 30 μL of calibrator, control, or unknown sample. Antibody-coupled beads were sonicated for 5 seconds and then vortexed at medium speed for 10 to 20 seconds to disperse the beads, and 10 μL beads (250 beads/analyte/μL) were added to each well per analyte. Plates were protected from light (Black Microplate Lid, VWR) and incubated for 1 hour at 25° C.±3° C. with shaking. […] After a final wash, 100 μL of assay buffer was added to each well and plates were read on a Luminex 200 reader.
Heterodimer complexes were measured in AMO-1 and MV11 xenograft tumor lysates using the immunoassay described in Examples 3 and 4. […] The level of cleaved caspase-3 was also measured. […] Heterodimer composition was also measured in blood or bone marrow samples of 11 patients with CLL.

BIM = details: AMO-1 xenograft tumor lysates, 16 hours after 25 mg/kg intravenously (FIG. 7A)
Experimental: The effect of two different BH3 mimetics on heterodimer composition in the AMO-1 and MV411 models was next evaluated. […] Heterodimer complexes were measured in tumor lysates prepared from AMO-1 mice 16 hours after treatment and from MV411 mice 24 hours after treatment.

BAX-BAK heterodimer = assay: Heterodimer immunoassay, BAX-BAK in lysates of treated cancer cell lines; assay type: cell-based, human; design: BAX-BAK heterodimers: dose or concentration left out as unconfirmed; details: for BAX-BAK levels: HCT116 and MOLT-4 cancer cell lines (FIG. 4C)
Experimental: (§1) The immunoassays described herein were built on the Luminex xMAP multiplex technology platform using magnetic bead capture. Washes were performed with a 96-well magnetic plate washer (ELx405), BioTek). During incubation, the plates were placed on an orbital titer plate shaker (VWR International). Liquid handling was performed manually with calibrated, adjustable, precision multichannel pipettes (Rainin 8-Channel). All assays were performed in 96-well plates (BioPlex, BioRad) at 25° C.±3° C. by adding 10 μL of blocking solution (Myriad RBM) and 30 μL of calibrator, control, or unknown sample. Antibody-coupled beads were sonicated for 5 seconds and then vortexed at medium speed for 10 to 20 seconds to disperse the beads, and 10 μL beads (250 beads/analyte/μL) were added to each well per analyte. Plates were protected from light (Black Microplate Lid, VWR) and incubated for 1 hour at 25° C.±3° C. with shaking. Plates were washed with wash solution (Myriad RBM), and then 40 μL of detection antibody-biotin conjugate was added and plates were incubated for an additional hour with shaking. After incubation with the antibody-biotin conjugate, 40 μL of R-phycoerythrin-labeled streptavidin (Invitrogen) was added, and plates were incubated for 30 minutes with shaking. After a final wash, 100 μL of assay buffer was added to each well and plates were read on a Luminex 200 reader.
(§2) Further studies were conducted to evaluate the effect of BH3 mimetics on Bcl-2 family heterodimer levels and induction of apoptosis.
(§3) Similar studies were performed in AMO-1 plasmacytoma cells and Mv4-11 acute myeloid leukemia cells. […] The level of cleaved caspase-3 was also determined.

AMO1 xenografts = details: intravenous injection; Kotschy et al.; cited from earlier work
Bcl-2-BIM complexes = target: T1, Bcl-2-BIM complexes (Homo sapiens, UniProt P10415); assay: Heterodimer complexes in AMO-1 xenograft tumor lysates after treatment, Bcl-2-BIM; assay type: in vivo, mice; details: 16 hours after treatment, NSC798846 25 mg/kg intravenously, NSC766270 100 mg/kg orally (FIG. 7A)
T1 construct: from tissue; host or cells: AMO-1 xenograft tumors grown in mice
Experimental: as §1

[1] = test system: MV4-11 human AML xenograft model; details: in vivo; compared with AMO1 xenografts; Kotschy et al.; cited from earlier work
cleaved caspase-3 = assay: Cleaved caspase-3 level in treated cancer cell lines; assay type: cell-based, human; design: dose or concentration left out as unconfirmed
Experimental: as §2, §3

AMO-1 cell line = details: read-out: IC50 (sensitivity to S63845), Kotschy et al., Nature 2016; cited from earlier work
BIM-Bcl-xL heterodimer = BIM-Bcl-xL heterodimer (Homo sapiens, UniProt Q07817); assay: Heterodimer immunoassay, BIM-Bcl-xL in lysates of treated cancer cell lines; assay type: cell-based; design: BIM-Bcl-xL heterodimeric complexes: dose or concentration left out as unconfirmed
Experimental: as §1, with “After incubation with the antibody-biotin conjugate, 40 μL of R-phycoerythrin-labeled streptavidin (Invitrogen) was added, and plates were incubated for 30 minutes with shaking.” left out, “reader. […]” for “reader.”
as §3

BIM-Mcl-1 heterodimer = target: T2, BIM-Mcl-1 heterodimer (Homo sapiens, UniProt Q07820); assay: Heterodimer immunoassay, BIM-Mcl-1 in lysates of treated cancer cell lines; assay type: cell-based; design: BIM-Mcl-1 heterodimers: dose or concentration left out as unconfirmed
T2 construct: Within cells, anti-apoptotic proteins exist primarily as complexed heterodimers with pro-apoptotic proteins; endogenous in cells; host or cells: AMO-1, MV4-11 (Mv411), HCT116, MOLT-4
Experimental: as §1, §2, §3

[2] = Mv4-11 cells, treated with vs untreated (FIG. 5D, 5E)
[3] = AMO-1 cells, treated vs untreated (FIG. 5B, 5C)
[4] = HCT116 and MOLT-4 cancer cell lines (FIG. 4D)
[5] = Mv4-11 cells, treated vs untreated (FIG. 5D, 5E)

T2 sequence (Q07820 whole entry, one chain of several): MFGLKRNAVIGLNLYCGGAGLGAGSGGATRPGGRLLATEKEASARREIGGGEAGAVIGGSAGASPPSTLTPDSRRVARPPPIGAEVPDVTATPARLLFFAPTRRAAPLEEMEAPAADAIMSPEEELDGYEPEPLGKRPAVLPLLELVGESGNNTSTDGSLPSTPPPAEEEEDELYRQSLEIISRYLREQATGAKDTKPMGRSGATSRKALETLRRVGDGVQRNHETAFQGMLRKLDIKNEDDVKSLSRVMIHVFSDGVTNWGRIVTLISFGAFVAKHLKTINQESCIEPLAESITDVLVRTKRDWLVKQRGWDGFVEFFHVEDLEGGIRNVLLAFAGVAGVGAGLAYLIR
BIM-Bcl-xL heterodimer, sequence (Q07817 whole entry, one chain of several): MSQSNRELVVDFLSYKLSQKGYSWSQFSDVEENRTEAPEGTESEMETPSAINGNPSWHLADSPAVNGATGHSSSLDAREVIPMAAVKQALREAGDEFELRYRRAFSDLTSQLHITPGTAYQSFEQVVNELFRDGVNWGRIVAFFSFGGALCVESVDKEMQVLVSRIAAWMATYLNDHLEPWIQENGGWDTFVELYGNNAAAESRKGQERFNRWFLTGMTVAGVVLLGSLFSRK
T1 sequence (P10415 whole entry, one chain of several): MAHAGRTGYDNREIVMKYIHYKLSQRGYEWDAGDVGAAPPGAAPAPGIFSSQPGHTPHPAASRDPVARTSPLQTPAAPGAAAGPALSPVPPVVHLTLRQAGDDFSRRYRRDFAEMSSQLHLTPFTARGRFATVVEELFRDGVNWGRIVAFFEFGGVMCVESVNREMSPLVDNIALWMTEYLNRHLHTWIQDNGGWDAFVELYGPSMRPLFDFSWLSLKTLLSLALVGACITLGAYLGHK

| BIM-Bcl-xL levels (BIM-Bcl-xL heterodimer; HCT116 and MOLT-4 cancer cell lines (FIG. 4A)) | BIM-Bcl-xL heterodimeric complexes (BIM-Bcl-xL heterodimer; Mv4-11 cells, treated vs untreated (FIG. 5E)) | BIM-Mcl-1 levels (BIM-Mcl-1 heterodimer; AMO-1 and Mv411 cell lines, in vitro (FIG. 3A)) | BIM-Mcl-1 levels (BIM-Mcl-1 heterodimer; HCT116 and MOLT-4 cancer cell lines (FIG. 4B)) | BIM-Mcl-1 heterodimers (BIM-Mcl-1 heterodimer; [2]) | Structure (SMILES) | effectiveness of treatment in multiple myeloma model AMO-1 (AMO-1 xenograft tumors) | disrupting the balance of BIM complexes and initiating caspase-3 activation and cell death (MV411 xenograft tumors) | BAK-BAX oligomerization (mitochondrial poration marker), subsequent caspase-3 activation and cell death (BAK-BAX oligomerization) | BIM (overall) (BIM) | BAX-BAK heterodimers (BAX-BAK heterodimer; AMO-1 cells, treated with vs untreated (FIG. 5B)) | BAX-BAK levels (BAX-BAK heterodimer) | BAX-BAK heterodimers (BAX-BAK heterodimer; [2]) | anti-tumor activity in AMO1 xenografts (AMO1 xenografts) | Bcl-2-BIM complexes (Bcl-2-BIM complexes) | activity in MV4-11 human AML xenograft model [1] | cleaved caspase-3 (cleaved caspase-3; [3]) | cleaved caspase-3 (cleaved caspase-3; [4]) | cleaved caspase-3 (cleaved caspase-3; [5]) | IC50 (AMO-1 cell line) |
| --- | --- | --- | --- | --- | --- | --- | --- | --- | --- | --- | --- | --- | --- | --- | --- | --- | --- | --- | --- |
| – | – | – | – | – | CC1(C)CCC(CN2CCN(c3ccc(C(=O)NS(=O)(=O)c4ccc(NCC5CCOCC5)c([N+](=O)[O-])c4)c(Oc4cnc5[nH]ccc5c4)c3)CC2)=C(c2ccc(Cl)cc2)C1 [NSC766270] | ineffective | equally effective | did not initiate | – | – | – | – | – | – | – | – | – | – | – |
| – | – | – | – | – | Cc1c(-c2c(-c3ccc(F)o3)sc3ncnc(O[C@H](Cc4ccccc4OCc4ccnn4CC(F)(F)F)C(=O)O)c23)ccc(OCCN2CCN(C)CC2)c1Cl [S63845] | – | equally effective | – | overall degradation | increase | increased | significant increase | dose-dependent anti-tumor activity | disruption | less potent activity | increase | increased activation | significant increase | < 100 nM |
| disrupted | decrease | largely unaffected | increased | increase | CC1(C)CCC(c2ccc(Cl)cc2)=C(CN2CCN(c3ccc(C(=O)NS(=O)(=O)c4ccc(N[C@H](CCN5CCOCC5)CSc5ccccc5)c(S(=O)(=O)C(F)(F)F)c4)cc3)CC2)C1 [novitoclax] | – | – | – | – | – | increased | increase | – | – | – | did not lead to a significant increase | increased activation | increase | – |
